Data set [1] is described as follows: Stability of mini-tablets (Series 1-8) compared to an amoxicillin reference sample as a function of time. It is filed as physicochemical. The procedure: (§1) The 8 mini-tablets prepared in Example 1 and an amoxicillin reference sample were analyzed for stability. Stability data for clavulanic acid in mini-tablets compared to a clavulanic acid reference sample were also analyzed for stability.

The nature of data set [2]: Stability of mini-tablets containing clavulanic acid compared to a clavulanic acid reference sample as a function of time. It is filed as physicochemical. The procedure: as §1

In the case of `CC1(C)S[C@@H]2[C@H](NC(=O)[C@H](N)c3ccc(O)cc3)C(=O)N2[C@H]1C(=O)O` [Amoxicillin reference, Amoxicillin], the “Stability (amoxicillin) as a function of time” value in data set [1] (0 weeks) stood at 100.0; in data set [1] (1 week), 100.0; in data set [1] (49 weeks) it was 97.8.

In the case of `O=C(O)[C@H]1/C(=C/CO)O[C@@H]2CC(=O)N21` [Clavulanic acid reference, Clavulanic acid], the Stability (clavulanic acid) as a function of time was found to be 100% in data set [2] (0 weeks), 86.4% in data set [2] (1 week) and 88.4% in data set [2] (26 weeks).

Source of the values: patent publication US20150238425A1, “MINI-TABLETS” (DSM SINOCHEM PHARMACEUTICALS NETHERLANDS B.V., priority 2012, published 2015).
